In US5994336A, “Method of inhibiting proliferation of cells by administering an aminosterol compound” (priority 1995, dated 1999):

Assays:
B16 melanoma = experiment: Synergistic inhibition of tumor growth, B16 melanoma model; format: in vivo, mouse; conditions: squalamine alone
Experimental: Based on the idea that tumor growth involves both the clonal expansion of a malignant cell along with the development of a supporting vascular supply, a combination of compound 1436 with squalamine was tested to determine whether it would achieve a synergistic effect on solid tumor growth. This concept was evaluated in the B16 melanoma model.
Animals were implanted with B16 melanoma followed by treatment with compound 1436 or 1256 administered in a combined schedule or separately. […] Thus, a combination of these two compounds achieves a therapeutic benefit in tumors dependent on neovascularization that may prevent metastatic spread.

[1] = system: bovine pulmonary endothelial cells; experiment: Growth inhibition in vitro (absorbance at 600 nm); format: cell-based; conditions: 1 μg/ml; FIG. 3A
[2] = system: human microvascular cells; experiment: Inhibition of endothelial cell cord formation in vitro; format: cell-based; conditions: words
Description: Endothelial cells have the capacity in vitro to form tubular aggregates resembling capillaries in various early stages of formation. This conversion occurs under relatively specific conditions, in which essential growth factors along with an effective substratum are provided. It has been shown that both the interaction of growth factors with the endothelial cell and its attachment to a substratum activate the NHE. The activation of this exchanger is believed to be required for subsequent morphologic transformation of the endothelial cell into a multicellular tubular structure.
To assess the effect of compounds on the cord-like structures formed by human microvascular cells when plated in the presence of VEGF (Vascular Endothelial Growth Factor) and basic fibroblast growth factor on a collagen matrix, a standard cord formation assay was used.

[3] = system: human coronary artery smooth muscle; experiment: Proliferation of human coronary artery smooth muscle in vitro; format: cell-based; conditions: FIG. 15
Description: Aminosterols of the invention may also have utility in inhibiting the growth factor mediated proliferation of smooth muscle within the artery. Following coronary angioplasty, reocclusion commonly occurs, secondary to reparative proliferation of the vascular smooth muscle within the wall of the surgically manipulated blood vessel. This process generally takes place over the course of 7-10 days. To evaluate whether an agent could prevent the growth factor mediated proliferation of smooth muscle within the artery, compound 1436 was evaluated in vitro for its effect on the proliferation of human coronary artery smooth muscle. Results for compound 1436 are shown in FIG. 13, and those for squalamine are shown in FIG. 14, with FIG. 15 being a composite logarithmic plot.

With `CC(C)[C@@H](CC[C@@H](C)[C@H]1CC[C@H]2[C@@H]3[C@H](O)C[C@H]4C[C@@H](NCCCNCCCCN)CC[C@]4(C)[C@H]3CC[C@]12C)OS(=O)(=O)O` [squalamine] the “impact on tumor volume” value (B16 melanoma; 5 mg/kg/day, FIG. 12) was “no significant impact on tumor volume”, the “effect compared with combination” value (B16 melanoma; 15 mg/kg/day) was “Neither administration of squalamine at 15 mg/kg/day nor compound 1436 alone in a tolerable schedule could achieve this effect” and the “growth of bovine pulmonary endothelial cells” value [1] was “inhibited the growth”. For the same compound, the “effect on cell viability or proliferation at cord-inhibiting concentrations” value [2] was “does not appear to profoundly affect cell viability or proliferation” and the “suppression of growth in vitro” value [3] was “suppress in vitro the growth of human coronary artery smooth muscle”.
